# Species on record: Rattus norvegicus
# Assay: Open TG-GATES - Regimen: Daily Repeat
# Assay type: toxicity, organism-based, Sprague-Dawley
# Parameters: regimen Daily Repeat, gender Male, age 6 weeks
# Conditions: in vivo, po, 0 mg/kg, route gavage, dose level Control; for APTT / Bas / Eos / Fbg / Hb / Ht / Lym / MCH / MCHC / MCV / Mono / Neu / PT / Plat / RBC / Ret / WBC: tissue Blood; for KIDNEY_L / KIDNEY_R / KIDNEY_TOTAL: tissue Kidney; for LIVER: tissue Liver; for A/G / ALP / ALT / AST / BUN / CRE / Ca / Cl / DBIL / GLC / IP / K / LDH / Na / PL / RALB / TBIL / TC / TG / TP / gamma-GTP: tissue Plasma
compound,measurement,setting,value
CC(=O)[C@@]1(O)CC[C@H]2[C@@H]3C=C(Cl)C4=CC(=O)CC[C@]4(C)[C@H]3CC[C@@]21C [CHLORMADINONE],TERMINAL_BW,"72 h, time 3 day",240.6 g
same,APTT,"72 h, time 3 day",23.6 s
same,Bas,"72 h, time 3 day",0%
same,Eos,"72 h, time 3 day",1%
same,Fbg,"72 h, time 3 day",295 mg/dL
same,Hb,"72 h, time 3 day",13.3 g/dL
same,Ht,"72 h, time 3 day",40.9%
same,Lym,"72 h, time 3 day",77.6%
same,MCH,"72 h, time 3 day",20.3 pg
same,MCHC,"72 h, time 3 day",32.6%
same,MCV,"72 h, time 3 day",62.4 fL
same,Mono,"72 h, time 3 day",2.6%
same,Neu,"72 h, time 3 day",18.4%
same,PT,"72 h, time 3 day",15.6 s
same,Plat,"72 h, time 3 day",116.7 x10_4/uL
same,RBC,"72 h, time 3 day",656 x10_4/ul
same,Ret,"72 h, time 3 day",6.4%
same,WBC,"72 h, time 3 day",122.2 x10_2/uL
same,KIDNEY_L,"72 h, time 3 day",1 g
same,KIDNEY_R,"72 h, time 3 day",1 g
same,KIDNEY_TOTAL,"72 h, time 3 day",2 g
same,LIVER,"72 h, time 3 day",10.8 g
same,A/G,"72 h, time 3 day",1.2
same,ALP,"72 h, time 3 day",1828 IU/L
same,ALT,"72 h, time 3 day",43.8 IU/L
same,AST,"72 h, time 3 day",82 IU/L
same,BUN,"72 h, time 3 day",18.8 mg/dL
same,CRE,"72 h, time 3 day",0.2 mg/dL
same,Ca,"72 h, time 3 day",10.8 mg/dL
same,Cl,"72 h, time 3 day",105.8 meq/L
same,DBIL,"72 h, time 3 day",0 mg/dL
same,GLC,"72 h, time 3 day",190.6 mg/dL
same,IP,"72 h, time 3 day",7 mg/dL
same,K,"72 h, time 3 day",4.3 meq/L
same,LDH,"72 h, time 3 day",300.6 IU/L
same,Na,"72 h, time 3 day",141.6 meq/L
same,PL,"72 h, time 3 day",151.2 mg/dL
same,RALB,"72 h, time 3 day",3 g/dL
same,TBIL,"72 h, time 3 day",0.008 mg/dL
same,TC,"72 h, time 3 day",72.2 mg/dL
same,TG,"72 h, time 3 day",114.8 mg/dL
same,TP,"72 h, time 3 day",5.4 g/dL
same,gamma-GTP,"72 h, time 3 day",1.4 IU/L
same,TERMINAL_BW,"[…], time 7 day",267.1 g
same,TERMINAL_BW,"[…], time 14 day",325.5 g
same,TERMINAL_BW,"[…], time 28 day",410.9 g
same,APTT,"[…], time 7 day",24.1 s
same,Bas,"[…], time 7 day",0%
same,Eos,"[…], time 7 day",0.8%
same,Fbg,"[…], time 7 day",337 mg/dL
same,Hb,"[…], time 7 day",13.8 g/dL
same,Ht,"[…], time 7 day",41.5%
same,Lym,"[…], time 7 day",80.8%
same,MCH,"[…], time 7 day",20.3 pg
same,MCHC,"[…], time 7 day",33.1%
same,MCV,"[…], time 7 day",61.1 fL
same,Mono,"[…], time 7 day",2.2%
same,Neu,"[…], time 7 day",15.2%
same,PT,"[…], time 7 day",15.6 s
same,Plat,"[…], time 7 day",112.3 x10_4/uL
same,RBC,"[…], time 7 day",680 x10_4/ul
same,Ret,"[…], time 7 day",5.6%
same,WBC,"[…], time 7 day",129.9 x10_2/uL
same,APTT,"[…], time 14 day",23.6 s
same,Bas,"[…], time 14 day",0%
same,Eos,"[…], time 14 day",0.8%
same,Fbg,"[…], time 14 day",320.6 mg/dL
same,Hb,"[…], time 14 day",14 g/dL
same,Ht,"[…], time 14 day",41.9%
same,Lym,"[…], time 14 day",80.8%
same,MCH,"[…], time 14 day",19.9 pg
same,MCHC,"[…], time 14 day",33.5%
same,MCV,"[…], time 14 day",59.5 fL
same,Mono,"[…], time 14 day",2.2%
same,Neu,"[…], time 14 day",15.2%
same,PT,"[…], time 14 day",15.4 s
same,Plat,"[…], time 14 day",100.4 x10_4/uL
same,RBC,"[…], time 14 day",704 x10_4/ul
same,Ret,"[…], time 14 day",5.2%
same,WBC,"[…], time 14 day",126.8 x10_2/uL
same,APTT,"[…], time 28 day",24.8 s
same,Bas,"[…], time 28 day",0%
same,Eos,"[…], time 28 day",0.8%
same,Fbg,"[…], time 28 day",325 mg/dL
same,Hb,"[…], time 28 day",15.2 g/dL
same,Ht,"[…], time 28 day",44%
same,Lym,"[…], time 28 day",82.2%
same,MCH,"[…], time 28 day",19.5 pg
same,MCHC,"[…], time 28 day",34.4%
same,MCV,"[…], time 28 day",56.5 fL
same,Mono,"[…], time 28 day",2%
same,Neu,"[…], time 28 day",14.2%
same,PT,"[…], time 28 day",15.5 s
same,Plat,"[…], time 28 day",100.5 x10_4/uL
same,RBC,"[…], time 28 day",779 x10_4/ul
same,Ret,"[…], time 28 day",3%
same,WBC,"[…], time 28 day",118.3 x10_2/uL
same,KIDNEY_L,"[…], time 7 day",1.1 g
same,KIDNEY_R,"[…], time 7 day",1.1 g
same,KIDNEY_TOTAL,"[…], time 7 day",2.2 g
same,KIDNEY_L,"[…], time 14 day",1.2 g
same,KIDNEY_R,"[…], time 14 day",1.2 g
same,KIDNEY_TOTAL,"[…], time 14 day",2.5 g
same,KIDNEY_L,"[…], time 28 day",1.4 g
same,KIDNEY_R,"[…], time 28 day",1.4 g
same,KIDNEY_TOTAL,"[…], time 28 day",2.9 g
same,LIVER,"[…], time 7 day",12.3 g
same,LIVER,"[…], time 14 day",14.3 g
same,LIVER,"[…], time 28 day",17.2 g
same,A/G,"[…], time 7 day",1.2
same,ALP,"[…], time 7 day",1354.8 IU/L
same,ALT,"[…], time 7 day",39.4 IU/L
same,AST,"[…], time 7 day",67.8 IU/L
same,BUN,"[…], time 7 day",18.8 mg/dL
same,CRE,"[…], time 7 day",0.2 mg/dL
same,Ca,"[…], time 7 day",10.8 mg/dL
same,Cl,"[…], time 7 day",105.8 meq/L
same,DBIL,"[…], time 7 day",0 mg/dL
same,GLC,"[…], time 7 day",200.8 mg/dL
same,IP,"[…], time 7 day",7 mg/dL
same,K,"[…], time 7 day",4.2 meq/L
same,LDH,"[…], time 7 day",158.4 IU/L
same,Na,"[…], time 7 day",140.6 meq/L
same,PL,"[…], time 7 day",147.2 mg/dL
same,RALB,"[…], time 7 day",3.1 g/dL
same,TBIL,"[…], time 7 day",0.01 mg/dL
same,TC,"[…], time 7 day",76 mg/dL
same,TG,"[…], time 7 day",114.8 mg/dL
same,TP,"[…], time 7 day",5.7 g/dL
same,gamma-GTP,"[…], time 7 day",2.2 IU/L
same,A/G,"[…], time 14 day",1.1
same,ALP,"[…], time 14 day",1391 IU/L
same,ALT,"[…], time 14 day",37.4 IU/L
same,AST,"[…], time 14 day",64.6 IU/L
same,BUN,"[…], time 14 day",17.6 mg/dL
same,CRE,"[…], time 14 day",0.2 mg/dL
same,Ca,"[…], time 14 day",10.6 mg/dL
same,Cl,"[…], time 14 day",107 meq/L
same,DBIL,"[…], time 14 day",0 mg/dL
same,GLC,"[…], time 14 day",188 mg/dL
same,IP,"[…], time 14 day",6.6 mg/dL
same,K,"[…], time 14 day",4 meq/L
same,LDH,"[…], time 14 day",156.6 IU/L
same,Na,"[…], time 14 day",142.2 meq/L
same,PL,"[…], time 14 day",137.4 mg/dL
same,RALB,"[…], time 14 day",3 g/dL
same,TBIL,"[…], time 14 day",0.016 mg/dL
same,TC,"[…], time 14 day",69.6 mg/dL
same,TG,"[…], time 14 day",112.2 mg/dL
same,TP,"[…], time 14 day",5.7 g/dL
same,gamma-GTP,"[…], time 14 day",2.2 IU/L
same,A/G,"[…], time 28 day",1
same,ALP,"[…], time 28 day",988 IU/L
same,ALT,"[…], time 28 day",44.4 IU/L
same,AST,"[…], time 28 day",73.4 IU/L
same,BUN,"[…], time 28 day",21.6 mg/dL
same,CRE,"[…], time 28 day",0.2 mg/dL
same,Ca,"[…], time 28 day",10.6 mg/dL
same,Cl,"[…], time 28 day",103.8 meq/L
same,DBIL,"[…], time 28 day",0 mg/dL
same,GLC,"[…], time 28 day",201.4 mg/dL
same,IP,"[…], time 28 day",6.6 mg/dL
same,K,"[…], time 28 day",4.4 meq/L
same,LDH,"[…], time 28 day",217.4 IU/L
same,Na,"[…], time 28 day",141.2 meq/L
same,PL,"[…], time 28 day",131 mg/dL
same,RALB,"[…], time 28 day",3.1 g/dL
same,TBIL,"[…], time 28 day",0.01 mg/dL
same,TC,"[…], time 28 day",63.2 mg/dL
same,TG,"[…], time 28 day",112.4 mg/dL
same,TP,"[…], time 28 day",6.3 g/dL
same,gamma-GTP,"[…], time 28 day",2.2 IU/L

# Source: ChEMBL document CHEMBL3885861, “Open TG-GATES”
